Data: patent publication US6352958B1, “Cycloimido-substituted benzofused heterocyclic herbicides” (FMC Corporation, priority 1997, dated 2002)

What was measured:
[1] = tested on: soybean (Glycine max var. Winchester); assay: Preemergence herbicidal activity, soybean; type: in vivo; conditions: Glycine max, pre-emergence, Rate of Application 0.3 Kg/Ha, examined after 12-17 days, read-out: PREEMERGENCE HERBICIDAL ACTIVITY (% CONTROL) SOY
[2] = tested on: blackgrass (Aloepecurus myosuroides); assay: Preemergence herbicidal activity, blackgrass; type: in vivo; conditions: Alopecurus myosuroides, pre-emergence, Rate of Application 0.3 Kg/Ha, examined after 12-17 days, read-out: PREEMERGENCE HERBICIDAL ACTIVITY (% CONTROL) ALOMY
[3] = tested on: field corn (Zea mays var. Pioneer 3732); assay: Postemergence herbicidal activity, corn; type: in vivo; conditions: Zea mays, post-emergence, rate of application 0.3 Kg/Ha, rated after 12-17 days, read-out: Postemergence herbicidal activity (% control) CRN
[4] = tested on: common cocklebur (Xanthium strumarium L.); assay: Postemergence herbicidal activity, cocklebur; type: in vivo; conditions: Xanthium strumarium, post-emergence, rate of application 0.3 Kg/Ha, rated after 12-17 days, read-out: Postemergence herbicidal activity (% control) XANPE
[5] = tested on: blackgrass (Aloepecurus myosuroides); assay: Postemergence herbicidal activity, blackgrass; type: in vivo; conditions: Alopecurus myosuroides, post-emergence, rate of application 0.3 Kg/Ha, rated after 12-17 days, read-out: Postemergence herbicidal activity (% control) ALOMY
[6] = tested on: green foxtail (Setaria viridis); assay: Postemergence herbicidal activity, green foxtail; type: in vivo; conditions: Setaria viridis, post-emergence, rate of application 0.3 Kg/Ha, rated after 12-17 days, read-out: Postemergence herbicidal activity (% control) SETVI
[7] = tested on: Johnsongrass (Sorghum halepense); assay: Postemergence herbicidal activity, johnsongrass; type: in vivo; conditions: Sorghum halepense, post-emergence, rate of application 0.3 Kg/Ha, rated after 12-17 days, read-out: Postemergence herbicidal activity (% control) SORHA

| melting point | SMILES | inhibition at 300 g/ha [1] | inhibition at 300 g/ha [2] | inhibition at 300 g/ha [3] | inhibition at 300 g/ha [4] | inhibition at 300 g/ha [5] | inhibition at 300 g/ha [6] | inhibition at 300 g/ha [7] |
| --- | --- | --- | --- | --- | --- | --- | --- | --- |
| 208 to 210 °C | Cn1c(C(F)(F)F)cc(=O)n(-c2c(F)cc(Cl)c3[nH]c(C(F)(F)F)cc23)c1=O [Compound 500, 3-(7-CHLORO-5-FLUORO-2-TRIFLUOROMETHYLINDOL-4-YL)-1-METHYL-6-TRIFLUOROMETHYL-2,4(1H,3H)-PYRIMIDINEDIONE] | 95% | 75% | 95% | 100% | 80% | 100% | 100% |
| – | CC(C)c1nc2c(-n3c(=O)cc(C(F)(F)F)n(C)c3=O)c(F)cc(Cl)c2o1 [Compound 28, 1-METHYL-6-TRIFLUOROMETHYL-3-[7-CHLORO-5-FLUORO-2-(1-METHYLETHYL)BENZOXAZOL4-YL]-2,4(1H,3H)-PYRIMIDINEDIONE] | 100% | 100% | 80% | 90% | 100% | 100% | 95% |
| 150 to 155 °C | CCc1nc2c(-n3c(=O)cc(C(F)(F)F)n(C)c3=O)c(F)cc(Cl)c2[nH]1 [Compound 367, 3-(4-CHLORO-2-ETHYL-6-FLUOROBENZIMIDAZOL-7-YL)-1-METHYL-6-TRIFLUOROMETHYL-2,4(1H,3H)-PYRIMIDINEDIONE] | 100% | 90% | 100% | 100% | 100% | 100% | 100% |
